# Entries after “also recorded” stand apart in the source; their conditions may differ. Like-named read-outs stand apart in the source and are kept apart here.
# B1: IL-10: cytokine (protein, UniProt P22301 19-178, looked up)
# Interleukin-10: SPGQGTQSENSCTHFPGNLPNMLRDLRDAFSRVKTFFQMKDQLDNLLLKESLLEDFKGYLGCQALSEMIQFYLEEVMPQAENQDPDIKAHVNSLGENLKTLRLRLRRCHRFLPCENKSKAVEQVKNAFNKLQEKGIYKAMSEFDIFINYIEAYMTMKIRN
# B2: G-CSF: growth factor (protein, UniProt P09919 31-207, looked up)
# Granulocyte …: TPLGPASSLPQSFLLKCLEQVRKIQGDGAALQEKLVSECATYKLCHPEELVLLGHSLGIPWAPLSSCPSQALQLAGCLSQLHSGLFLYQGLLQALEGISPELGPTLDTLQLDVADFATTIWQQMEELGMAPALQPTQGAMPAFASAFQRRAGGVLVASHLQSFLEVSYRVLRHLAQP
# B3: I1-4: cytokine, probably IL-4 (protein, UniProt P05112 25-153, looked up)
# Interleukin-4: HKCDITLQEIIKTLNSLTEQKTLCTELTVTDIFAASKNTTEKETFCRAATVLRQFYSHHEKDTRCLGATAQQFHRHKQLIRFLKRLDRNLWGLAGLNSCPVKEANQSTLENFLERLKTIMREKYSKCSS
# B4: IL-1α: pro-inflammatory mediator (protein, UniProt P01583 113-271, looked up)
# Interleukin-1 alpha: SAPFSFLSNVKYNFMRIIKYEFILNDALNQSIIRANDQYLTAAALHNLDEAVKFDMGAYKSSKDDAKITVILRISKTQLYVTAQDEDQPVLLKEMPEIPKTITGSETNLLFFWETHGTKNYFTSVAHPNLFIATKQDYWVCLAGGPPSITDFQILENQA
# Columns and labels:
# CAMP [1] = assay: Induction of CAMP mRNA expression in U937 cells (QRT-PCR, RT-PCR, Northern blot); type: cell-based, human; conditions: for induction of CAMP (hCAP18) mRNA expression by Vitamin D3 analogs: U937, 1×10^−7 M, 12 and 24 hours
# CAMP [2] = conditions: cultured keratinocytes or composite keratinocyte grafts; cited from earlier work
# hCAP18 = conditions: colon epithelial cell lines; cited from earlier work
# CRAMP [3] = assay: CRAMP expression in bone marrow of treated BNX mice (Northern blot); conditions: intraperitoneal, 0.05 μg/mouse every two days for 6 weeks
# CAMP [4] = conditions: primary human keratinocytes; cited from earlier work
# CAMP [5] = assay: Induction of CAMP mRNA in keratinocyte cell line HaCat (QRT-PCR); type: cell-based, human
# Source text: The X-axis represents (CAMP(ng)/18S(ng)), +/−SD.
# CAMP [6] = assay: Induction of CAMP mRNA expression in NB4 cells (Northern blot)
# HNP3 (α-defensin) = assay: Induction of primary granule gene HNP3 in U937 cells (RT-PCR); conditions: U937, 1×10^−7 M, 24 h
# CRAMP [7] = assay: CRAMP in cultured bone marrow cells of C/EBPε-deficient or wild type mice (QRT-PCR); type: cell-based
# Experimental: Primers against murine CAMP/CRAMP (forward, SEQ ID NO.: 7 and reverse, SEQ ID NO.: 8) (Table 3) were used at 200 nM per reaction.
# The relative fold change between samples was determined using data normalized for 18S expression. Samples were analyzed in triplicate.
# LTF (lactoferrin) = assay: Induction of secondary granule gene LTF in U937 cells (RT-PCR); conditions: U937, 1×10^−7 M, 24 h
# CD11b [8] = assay: Differentiation marker CD11b mRNA in U937 cells (Northern blot); conditions: for macrophage-like differentiation (induction of CD11b): U937, 1,25[OH]2D3 1×10^−7 M or TPA 5 ng/ml, 1, 3 or 5 days
# Source text: Total RNA at each time point was isolated and electrophoresed, then transferred to a charged membrane for Northern analysis.
# Total RNA was extracted and analyzed by Northern blot.
# CAMP [9] = assay: Induction of CAMP mRNA expression in HL60 cells (Northern blot)
# CD11b [10] = assay: Differentiation marker CD11b mRNA in HL60 cells (Northern blot); type: cell-based, human; conditions: HL-60; 1,25[OH]2D3 1×10^−7 M or TPA 5 ng/ml; 1, 3 or 5 days
# [11] = U937, initial screen, 24 h, QRT-PCR and Northern blot
molecule,measurement,setting,value
"C=C1/C(=C\C=C2/CCC[C@]3(C)[C@@H]([C@H](C)/C=C/C=C/C(O)(CC)CC)CC[C@@H]23)C[C@@H](O)C[C@@H]1O [EB1089, 1,25-dihydroxy-22,24-diene, 24,26,27-trihomo]",induction of CAMP (hCAP18) mRNA expression by Vitamin D3 analogs,CAMP [1]; Northern blot,strongly induced CAMP gene expression
same,induction of CAMP (hCAP18) mRNA expression by Vitamin D3 analogs,"CAMP [1]; Northern blot, listed as EB 1089",Induction of hCAP18 mRNA expression was observed; also recorded: Induction of CAMP mRNA expression was observed
"C[C@@H]1C[C@@H]([C@H](O)CC2CC(=O)NC(=O)C2)C(=O)[C@@H](C)C1 [CHX, cyclohexamide]",induction of CAMP gene expression by CHX alone,"CAMP [1]; U937, data not shown",did not induce CAMP gene expression
TNFα,induction of CAMP expression,CAMP [2],did not
same,induction of hCAP18 expression,hCAP18,not by pro-inflammatory mediators
same,induction of CAMP expression,CAMP [1]; [11],"only 1,25(OH)2D3 induced CAMP expression significantly"
"C=C1/C(=C\C=C2/CCC[C@]3(C)[C@@H]([C@H](C)/C=C/C[C@@](C)(O)CO)CC[C@@H]23)C[C@@H](O)C[C@@H]1O [compound I, 1,25R,26-(OH)3-22-ene-D3]",induction of CAMP (hCAP18) mRNA expression by Vitamin D3 analogs,CAMP [1]; Northern blot,strongly induced CAMP gene expression; also recorded: Induction of hCAP18 mRNA expression was observed; also recorded: Induction of CAMP mRNA expression was observed
same,CRAMP expression in bone marrow compared with a vehicle-treated mouse,CRAMP [3],did not significantly alter CRAMP expression
IL-1β: proinflammatory cytokine,induction of CAMP expression,CAMP [2],induced CAMP expression
IL-6: cytokine,induction of CAMP expression,CAMP [2],did not
same,induction of hCAP18 expression,hCAP18,not by pro-inflammatory mediators
same,induction of CAMP expression,CAMP [1]; [11],"only 1,25(OH)2D3 induced CAMP expression significantly"
"C=C1/C(=C\C=C2/CCC[C@]3(C)[C@@H]([C@@H](C)OCCCC(O)(CC)CC)CC[C@@H]23)C[C@@H](O)C[C@@H]1O [KH1060, 20-epi-22oxa-24a,26a,27a-tri-homo-1,25(OH)2D3]",induction of CAMP (hCAP18) mRNA expression by Vitamin D3 analogs,CAMP [1]; Northern blot,strongly induced CAMP gene expression; also recorded: Induction of hCAP18 mRNA expression was observed; also recorded: Induction of CAMP mRNA expression was observed
CCCCCCCCCCCCCC(=O)O[C@@H]1[C@@H](C)[C@@]2(O)[C@@H](C=C(CO)C[C@]3(O)C(=O)C(C)=C[C@@H]23)[C@@H]2C(C)(C)[C@]12OC(C)=O [PMA],induction of hCAP18 expression,hCAP18,not by pro-inflammatory mediators
insulin-like growth factor (IGF)-1: growth factor that is important in wound healing,induction of CAMP mRNA and protein,CAMP [4],induce both the CAMP mRNA and protein
INFγ: inflammatory factor,induction of CAMP expression,CAMP [2],did not
same,induction of hCAP18 expression,hCAP18,not by pro-inflammatory mediators
same,induction of CAMP expression,CAMP [1]; [11],"only 1,25(OH)2D3 induced CAMP expression significantly"
GM-CSF: growth factor,induction of CAMP expression,CAMP [1]; [11],"only 1,25(OH)2D3 induced CAMP expression significantly"
"C=C1/C(=C\C=C2/CCC[C@]3(C)[C@@H]([C@H](C)CCCC(C)(C)O)CC[C@@H]23)C[C@@H](O)C[C@@H]1O [1,25(OH)2D3, 1,25-dihydroxyvitamin D3]",induction of CAMP mRNA compared with myeloid cells,CAMP [5],not as robust as that observed in the myeloid cells; also recorded: less striking
same,induction of CAMP mRNA,"CAMP [5]; 1×10^−7 M, 24 hours, QRT-PCR",Induction of CAMP mRNA was observed
same,induction of CAMP expression,"CAMP [6]; NB4, 1×10^−6 M to 1×10^−9 M, 24 h, Northern blot (FIG. 3)",induction was observed; also recorded: induced expression of CAMP was observed
same,induction of CAMP expression,"CAMP [6]; NB4, 1×10^−6 M to 1×10^−9 M, 24 h, Northern blot (FIG. 3), listed as Vitamin D3",Moderate induction
same,induction of HNP3,HNP3 (α-defensin),No induction of these genes was observed
same,induction of CRAMP,"CRAMP [7]; C/EBPε-deficient or wild type bone marrow cells cultured in vitro, 24 h",CRAMP induction was not observed
same,decrease of CRAMP,"CRAMP [7]; bone marrow cells, 24 h post-treatment (FIG. 14B)",approximately 2 fold
same,induction of LTF,LTF (lactoferrin),No induction of these genes was observed
same,time of induction of the differentiation marker CD11b,"CD11b [8]; U937, 1×10^−7 M, time course 1-24 hours",12 h
same,macrophage-like differentiation (induction of CD11b),CD11b [8],promoted macrophage-like differentiation
"C[C@]12CCC(=O)C[C@@H]1CC[C@@H]1[C@@H]2CC[C@]2(C)[C@@H](O)CC[C@@H]12 [DHT, dihydrotestosterone]",induction of CAMP expression,CAMP [1],"only 1,25(OH)2D3 induced CAMP expression significantly"
"CC1=C(/C=C/C(C)=C/C=C/C(C)=C/C(=O)O)C(C)(C)CCC1 [ATRA, all trans retinoic acid]",induction of CAMP expression,"CAMP [6]; NB4, 5×10^−7 M, 1-5 days",No induction was observed
same,induction of CAMP expression,"CAMP [1]; U937, 5×10^−7 M, 1-5 days",No induction was observed
same,induction of CAMP expression,CAMP [1]; [11],"only 1,25(OH)2D3 induced CAMP expression significantly"
same,induction of CAMP expression,"CAMP [9]; HL60, 5×10^−7 M, 1-5 days",No induction was observed
IL-8: cytokine,induction of CAMP expression,CAMP [2],did not
CCCCCCCCCCCCCC(=O)O[C@@H]1[C@@H](C)[C@@]2(O)[C@@H](C=C(CO)C[C@]3(O)C(=O)C(C)=C[C@@H]23)[C@@H]2C(C)(C)[C@]12OC(C)=O [TPA],induction of CAMP expression,CAMP [1]; [11],"only 1,25(OH)2D3 induced CAMP expression significantly"
same,induction of CAMP mRNA,"CAMP [1]; U937, 1,25[OH]2D3 1×10^−7 M or TPA 5 ng/ml, 1, 3 or 5 days, Northern blot",not TPA
same,macrophage-like differentiation (induction of CD11b),CD11b [10],promoted macrophage-like differentiation
same,induction of CAMP mRNA,"CAMP [9]; HL-60, 1,25[OH]2D3 1×10^−7 M or TPA 5 ng/ml, 1, 3 or 5 days, Northern blot",not TPA
same,macrophage-like differentiation (induction of CD11b),CD11b [8],promoted macrophage-like differentiation
B1,induction of CAMP expression,CAMP [2],did not
B2,induction of CAMP expression,CAMP [1]; [11],"only 1,25(OH)2D3 induced CAMP expression significantly"
B3,induction of CAMP expression,CAMP [2],did not
B4,induction of hCAP18 expression,hCAP18,not by pro-inflammatory mediators
